Source: US20130172294A1, “Treatment with VB-201” (Vascular Biogenics Ltd., priority 2010, published 2013)

What was measured:
[1] = Safety and tolerability of single dose (Example 1); format: in vivo, human; conditions: single oral dose 1-50 mg
From the text: Safety and tolerability of VB-201 was judged by evaluating the incidence of abnormal findings in the following measurements: vital signs: systolic and diastolic blood pressure, heart rate, respiratory rate, body temperature; physical examination; 12-lead electrocardiogram; laboratory tests of blood samples for: complete blood count, prothrombin time/partial thromboplastin time, LDL- and HDL-cholesterol, total cholesterol, triglycerides, glucose, blood urea nitrogen, sodium, potassium, creatinine, calcium, phosphorus, creatinine phosphokinase, lactate dehydrogenase, aspartate transaminase, alanine transaminase, γ-glutamyl transferase, alkaline phosphatase, protein, albumin, total bilirubin, total IgM and IgG antibodies, interleukin-12/23 p40, tumor necrosis factor-α, and interleukin-6, as well as routine urinalysis; and all adverse events, whether or not considered serious, and whether or not considered related to the investigational agent, according to the criteria for Good Clinical Practice. Treatment-emergent adverse events were defined as any adverse event that started on or after administration of the first dose of VB-201, and no more than 30 days after administration of the last dose, or are ongoing at the time of the first dose and worsened in severity or frequency during treatment. […] All subjects were healthy male volunteers. Five cohorts of six subjects each received a single dose of 1, 3, 10, 30 or 50 mg VB-201. 10 subjects received a placebo. The VB-201 was formulated in gelatin capsules enterocoated with Eudragit®.

[2] = Safety and tolerability, food and coating study (Example 3); format: in vivo, human
From the text: Safety and tolerability of VB-201 was judged by evaluating the incidence of abnormal findings in the following measurements: vital signs: systolic and diastolic blood pressure, heart rate, respiratory rate, body temperature; physical examination; 12-lead electrocardiogram; laboratory tests of blood samples for: complete blood count, prothrombin time/partial thromboplastin time, LDL- and HDL-cholesterol, total cholesterol, triglycerides, glucose, blood urea nitrogen, sodium, potassium, creatinine, calcium, phosphorus, creatinine phosphokinase, lactate dehydrogenase, aspartate transaminase, alanine transaminase, γ-glutamyl transferase, alkaline phosphatase, protein, albumin, total bilirubin, total IgM and IgG antibodies, interleukin-12/23 p40, tumor necrosis factor-α, and interleukin-6, as well as routine urinalysis; and all adverse events, whether or not considered serious, and whether or not considered related to the investigational agent, according to the criteria for Good Clinical Practice. Treatment-emergent adverse events were defined as any adverse event that started on or after administration of the first dose of VB-201, and no more than 30 days after administration of the last dose, or are ongoing at the time of the first dose and worsened in severity or frequency during treatment. […]

interleukin-23 (IL-23) = test: Plasma cytokine assay, IL-23 (Example 5); format: in vivo, human
Description: Acquisition of samples was performed using FacsCalibur (Becton Dickinson).

[3] = test system: Human monocytes (CD14+ cells)
Description: Human monocytes (CD14^+ cells) were isolated from whole blood of healthy donors. Following PBMC (peripheral blood mononuclear cell) separation from whole blood using Ficoll-Paque and leucosep tubes, CD14^+ cells were separated using specific CD14 micro beads (Miltenyi Biotech). Purity of the CD14^+ population was validated using specific monoclonal CD14 antibody by FACS analysis. For chemoattractant, RANTES (100 ng/ml), MIP-1α (macrophage inflammatory protein-1a; 50 ng/ml), MCP-1 (monocyte chemotactic protein-1; 50 ng/ml) or MCP-3 (50 ng/ml) were dissolved in 2% fetal bovine serum/RPMI-1640 and placed at the lower chamber of QCM™ 24-well migration assay plate (Corning-Costar). CD14+ cells were pre-incubated for 30 minutes with solvent (1% ethanol/PBS) or VB-201 at 8 μM (or different concentrations ranging between 1.7-17 μM, not shown). Migration assay was conducted by seeding 300,000 treated cells in the upper chamber, followed by incubated for 3-4 hours, after which the number of migrated cells was determined by FACS (fluorescence activated cell sorting).
VB-201 was tested in vitro as described hereinabove for possible effects on migration of human primary monocytes towards inflammatory chemokines using a trans-well assay. For a broad analysis, several chemoattractants which serve as ligands for different chemokine receptors were used. Two assays were performed in triplicates for each chemoattractant.

For CCCCCCCCCCCCCCCCOCC(COP(=O)([O-])OCC[N+](C)(C)C)OCCCCC(=O)O (stereo not drawn) [VB-201, 1-hexadecyl-2-(4′-carboxybutyl)-glycerol-3-phosphocholine], the electrocardiogram findings [1] was “None of the subjects which received VB-201 had clinically significant electrocardiogram findings”, the safety profile [1] was “comparable safety profile of VB-201 to a placebo” and the serious adverse events [1] was “No serious adverse events occurred”. The safety and tolerability ([2]; enteric coated and non-coated capsules, 10 to 20 mg, fasting or fed) was “as safe and tolerable as placebo”, the “serious or treatment-emergent adverse events” value ([2]; single dose 10-20 mg, coated and non-coated, fed and fasting) was “No serious or treatment-emergent adverse events occurred” and the IL-23 plasma levels (interleukin-23 (IL-23); 40 mg per day, 14 days, both subjects with detectable pre-dose IL-23) was “considerably reduced”. For the same compound, the IL-23 plasma levels (interleukin-23 (IL-23); 80 mg per day, 28 days, all three subjects) was “considerably reduced”, the “migration of human primary monocytes towards MCP-1” value ([3]; 8 μM VB-201, 30 min pre-treatment, MCP-1 50 ng/ml) was “significantly (P<0.05) reduced” and the “migration of human primary monocytes towards MCP-3” value ([3]; 8 μM VB-201, 30 min pre-treatment, MCP-3 50 ng/ml) was “significantly (P<0.05) reduced”. For the same compound, the “migration of human primary monocytes towards MIP-1α” value ([3]; 8 μM VB-201, 30 min pre-treatment, MIP-1α 50 ng/ml) was “significantly (P<0.05) reduced”, the “migration of human primary monocytes towards RANTES” value ([3]; 8 μM VB-201, 30 min pre-treatment, RANTES 100 ng/ml) was “significantly (P<0.05) reduced” and the “dose dependence of inhibition of monocyte migration” value ([3]; in vitro, 1.7-17 μM) was “dose-dependent”.
